A word on the inhibition: it is the change of the read-out against control, counted positive when it falls.

Where two headings read alike, the source gives them in different places.

Results on six compounds are retold here after PMC5442318, “Hundreds of dual-stage antimalarial molecules discovered by a functional gametocyte screen” (Nature Communications, 2017).

Data set [1] deals with HepG2 cells. Put plainly: HepG2 cytotoxicity assay. In kind it is cell-based. In short, it runs like this:
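Luminescent read-out (CellTiter-Glo) taken 10 min after reagent addition at RT; plates and reagent pre-equilibrated 30 min at RT.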

The test system of data set [2] is P. falciparum stages IV–V gametocytes. Put plainly: Gametocytocidal ATP-depletion assay (gametocyte ATP bioluminescence). In kind it is cell-based, Plasmodium falciparum. The conditions noted are these: Plasmodium falciparum, mean. Put shortly: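 Read-out is luciferase luminescence of parasite ATP (BacTiter-Glo), standing in for viability. Double-purified mature stage IV–V gametocytes, 12,500 per well, were exposed 48 h at 37 °C in low-O2 gas; screening concentration 2 μM.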

Data set [3] has as its system P. falciparum stage V female gametocytes. Kind of data set: P. falciparum female gametocyte activation assay (Pf FGAA), 24 h or 48 h preincubation, Pfs25 expression readout. The format is cell-based, Plasmodium falciparum NF54. The settings on record: for Biological profile: Pf FGAA with 48 h, 24 h or post-activation addition, active = IC50 below 2 μM; for IC50: Plasmodium falciparum; for Pf FGAA classification: SLOW / FAST / GAMETE from activity at 48h, 24h, 0h incubation. In short, it runs like this:
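Female activation, triggered by xanthurenic acid and cooling, was scored by imaging Cy3-labelled anti-Pfs25 female gametes after 24 h at 26 °C. Beforehand, purified NF54 stage V gametocytes had been incubated with compound for either 24 h or 48 h (37 °C, 3% O2). Values are pIC50 from full-curve regression.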

The subject of data set [4] is P. falciparum asexual blood stages. The conditions noted are these: ref 1 (Gamo, F. J. et al., Nature 465, 305-310, 2010), cited from earlier work; for IC50: TCAMS asexual blood stage data, read-out: Pf Asexual blood stages XC50; for Pf Asexual stages XC50: TCAMS data.
Where [5] appears, read: HepG2 TOX50 versus Pf FGAA IC50.
The mark [6] stands for this setting: 24h incubation time, read-out: Pf FGAA IC50 (µM) 24h.
Setting [7] is: stage V gametocytes, 48 h exposure, read-out: PfFGAA IC50.

Consider `FC(F)(F)c1cnc(Sc2nnc(-c3ccncc3)o2)c(Cl)c1` [TCMDC-123767], for which the “Tox50” value in data set [1] (HepG2, 48 h) came to 100 µM. For the same compound, the Selectivity ratio in data set [1] (setting [5]) is listed as over 625. Moreover, in data set [1] (HepG2 cells), the “HepG2 cells TOX50” value is on record as over 100 µM. The “HepG2 cells mean TOX50” value in data set [1] (HepG2 cells; mean) is listed as over 100 µM. Moreover, the inhibition at 2 µM in data set [2] is -5.49%. In data set [3], the Biological profile entry is listed as “Slow-acting” and the “Pf FGAA classification” value is listed as “SLOW”. Moreover, the IC50 in data set [3] (setting [6]) is over 20 µM. Besides, the IC50 in data set [3] (setting [7]) stood at 0.16 µM. Further, in data set [4], the IC50 was 270 nM and the “Pf Asexual stages XC50” value is 270 nM.

As to `CC1Cc2ccccc2N1S(=O)(=O)c1cccc(C(=O)Nc2nc(-c3ccccn3)cs2)c1` (stereo not drawn) [TCMDC-124559], the “Tox50” value in data set [1] (HepG2, 48 h) was over 100 µM. Also, in data set [1] (setting [5]), the Selectivity ratio is recorded as 146.27. Moreover, the “HepG2 cells mean TOX50” value in data set [1] (HepG2 cells; mean) was 50.12 µM. Besides, the inhibition at 2 µM in data set [2] is 8.95%. Besides, in data set [3], the Biological profile result is recorded as “Fast-acting” and the “Pf FGAA classification” value is listed as “FAST”. Moreover, the IC50 in data set [3] (P. falciparum female gametocytes, mean, read-out: Gametocytes mean Pf FGAA IC50) turned out to be 0.34 µM. Besides, the IC50 in data set [3] (setting [7]) was 0.5 µM. In addition, in data set [4], the IC50 is 1320 nM and the “Pf Asexual stages XC50” value was 1320 nM.

For the compound `COc1cc(OC)cc(C(=O)Nc2nc(-c3ccccn3)cs2)c1` [TCMDC-125345], the “Tox50” value in data set [1] (HepG2, 48 h) turned out to be 39.82 µM. Moreover, the Selectivity ratio in data set [1] (setting [5]) is reported as 111.27. Besides, the “HepG2 cells mean TOX50” value in data set [1] (HepG2 cells; mean) came to 39.82 µM. The inhibition at 2 µM in data set [2] was 39.5%. Also, in data set [3], the Biological profile result is listed as “Fast-acting” and the “Pf FGAA classification” value is listed as “FAST”. The IC50 in data set [3] (setting [6]) was determined as 0.96 µM. Moreover, the IC50 in data set [3] (setting [7]) came out at 0.36 µM. Also, in data set [4], the IC50 was 560 nM and the “Pf Asexual stages XC50” value is 560 nM.

Turning to `CC(C)(CNC(=O)[C@H]1CCCCN1)c1nc(-c2ccc(Cl)c(O)c2)c(-c2ccncc2)[nH]1` [TCMDC-141070], the “Tox50” value in data set [1] (HepG2, 48 h) stood at 28.96 µM. Moreover, the Selectivity ratio in data set [1] (HepG2 TOX50 / Pf FGAA IC50) is reported as 54.30. The “HepG2 cells mean TOX50” value in data set [1] (mean; HepG2 cells) came to 28.96 µM. Further, the inhibition at 2 µM in data set [2] was -0.73%. Moreover, the Biological profile result in data set [3] is reported as “Gamete-targeting”. Also, the IC50 in data set [3] (setting [6]) was 1.68 µM; in data set [3] (setting [7]), 0.53 µM; in data set [4], 730 nM. In data set [3], the “Pf FGAA classification” value is reported as “GAMETE”. Besides, the “Pf Asexual stages XC50” value in data set [4] is 730 nM.

For the compound `NCC1(c2nc(-c3ccc(Cl)c(O)c3)c(-c3ccncc3)[nH]2)CCCCC1` [TCMDC-141154], in data set [1] (HepG2, 48 h), the “Tox50” value was determined as 11.9 µM. For the same compound, in data set [1] (HepG2 TOX50 / Pf FGAA IC50), the Selectivity ratio came out at 56.01. In addition, the “HepG2 cells mean TOX50” value in data set [1] (mean; HepG2 cells) is listed as 11.90 µM. Also, in data set [2], the inhibition at 2 µM is -10.5%. In data set [3], the Biological profile result is “Gamete-targeting” and the “Pf FGAA classification” value was “GAMETE”. Besides, in data set [3] (setting [6]), the IC50 amounted to 0.41 µM. For the same compound, the IC50 in data set [3] (setting [7]) amounted to 0.21 µM. In data set [4], the IC50 was 740 nM and the “Pf Asexual stages XC50” value was 530 nM.

As to `Cc1ccc(Cn2nc(Cl)c(N3CCNCC3)cc2=O)cc1NC(=O)Nc1ccc(-c2ccccc2)cc1` [TCMDC-141698], the “Tox50” value in data set [1] (HepG2, 48 h) was 4.79 µM. The Selectivity ratio in data set [1] (HepG2 TOX50 / Pf FGAA IC50) was found to be 10.79. Besides, the “HepG2 cells mean TOX50” value in data set [1] (mean; HepG2 cells) was 4.79 µM. Moreover, in data set [2], the inhibition at 2 µM is -7.4%. Also, the Biological profile entry in data set [3] was “Gamete-targeting”. The IC50 was 0.44 µM in data set [3] (setting [6]); 0.44 µM in data set [3] (48h incubation time, read-out: Pf FGAA IC50 (µM) 48h); 0.44 µM in data set [3] (mean, P. falciparum female gametocyte activation assay, read-out: Gametocytes mean Pf FGAA IC50); 0.44 µM in data set [3] (setting [7]); 680 nM in data set [4]. The “Pf FGAA classification” value in data set [3] is recorded as “GAMETE”. Also, the “Pf Asexual stages XC50” value in data set [4] was 670 nM.
